Source: patent publication US8598147B2, “Synergistic antimicrobial composition” (Dow Global Technologies LLC, priority 2009, dated 2013)

Columns and labels:
[1] = test system: oil field isolated anaerobic consortium, mainly SRB; assay: Biocidal efficacy (MBC, complete bacteria kill) of THPS, CTAC and THPS/CTAC combination against sulfate reducing bacteria; type: cell-based, sulfate reducing bacteria (SRB)
Description: Inside an anaerobic chamber (BACTRON anaerobic chamber), a deaerated sterile salt solution (3.1183 g of NaCl, 1.3082 mg of NaHCO3, 47.70 mg of KCl, 72.00 mg of CaCl2, 54.49 mg of MgSO4, 172.28 mg of Na2SO4, 43.92 mg of Na2CO3 in 1 L water) was contaminated with an oil field isolated anaerobic consortium, mainly SRB, at final bacterial concentrations of 10^6 to 10^7 CFU/mL.

oilfield SRB consortium = assay: Biocidal efficacy against anaerobic bacteria for a high temperature and sulfide-rich environment (dosage for 99.999% bacterial reduction); type: cell-based, sulfate reducing bacteria (SRB); conditions: 80° C., 7 days, daily challenge of SRB consortium and 10 ppm sulfide ion
Description: Inside an anaerobic chamber (BACTRON IV), biocides solutions were challenged with 10^4 to 10^5CFU/mL of an oilfield SRB consortium and 10 ppm sulfide ion (added in the form of sodium sulfide). The biocide solutions were then incubated at 80° C. under anaerobic condition for 7 days, with daily challenge of the SRB consortium (10^4 to 10^5CFU/mL) and sulfide ion (10 ppm). Then the biocidal efficacy was evaluated against the field SRB consortium at 2 hours and 7 days. The biocidal efficacy was determined by the biocide dosage required for 99.999% bacterial reduction. Synergy Index was then calculated. Table 2 summarizes the efficacy of each biocide and their blends, and the Synergy Index of each combination.

Row | Compound | MBC (active ppm) CTAC ([1]; CTAC concentration (alone or within the blend) for complete bacteria kill, 40° C., 24 hour, anaerobic, 10^6 to 10^7 CFU/mL) [active ppm] | Concentration (active ppm) required for 99.999% bacterial reduction CTAC (oilfield SRB consortium; CTAC concentration (alone or within the blend)) [active ppm] | MBC (active ppm) THPS [1] [active ppm] | Concentration (active ppm) required for 99.999% bacterial reduction THPS (oilfield SRB consortium; THPS concentration (alone or within the blend)) [active ppm]
1 | Cl/C=C\C[N+]12CN3CN(CN(C3)C1)C2.[Cl-] [CTAC, cis-1-(3-chloroallyl)-3,5,7-triaza-1-azoniaadamantane chloride] | 31.1 | 180 | – | –
2 | tetrakis(hydroxymethyl)phosphonium sulfate [THPS] | – | – | 4.1 | 45.0
